One assay has as its system COX1. Also on record: method as in Warner et al., 1999. The note with it: ref Warner et al., 1999; cited from earlier work.
Another assay concerns the target T1, hP2X2/3R (Homo sapiens, UniProt P56373+Q9UBL9).
T1 construct: expressed in transfected cells; host or cells: Xenopus laevis oocytes (co-injection of cRNAs)
T1 sequence (Q9UBL9 1-471): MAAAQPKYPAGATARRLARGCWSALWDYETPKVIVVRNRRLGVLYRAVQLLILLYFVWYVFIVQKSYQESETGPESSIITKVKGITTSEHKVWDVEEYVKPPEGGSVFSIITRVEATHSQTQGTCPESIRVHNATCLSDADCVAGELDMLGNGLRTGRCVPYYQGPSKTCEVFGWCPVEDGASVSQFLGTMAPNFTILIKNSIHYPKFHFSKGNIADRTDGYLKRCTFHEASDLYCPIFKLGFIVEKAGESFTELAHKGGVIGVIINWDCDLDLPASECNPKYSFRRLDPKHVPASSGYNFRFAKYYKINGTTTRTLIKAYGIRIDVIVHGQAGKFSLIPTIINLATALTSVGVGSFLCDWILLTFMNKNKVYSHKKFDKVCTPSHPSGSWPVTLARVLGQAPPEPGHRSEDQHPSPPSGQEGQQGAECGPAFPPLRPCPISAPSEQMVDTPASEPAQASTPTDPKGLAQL
T1 sequence (P56373 1-397): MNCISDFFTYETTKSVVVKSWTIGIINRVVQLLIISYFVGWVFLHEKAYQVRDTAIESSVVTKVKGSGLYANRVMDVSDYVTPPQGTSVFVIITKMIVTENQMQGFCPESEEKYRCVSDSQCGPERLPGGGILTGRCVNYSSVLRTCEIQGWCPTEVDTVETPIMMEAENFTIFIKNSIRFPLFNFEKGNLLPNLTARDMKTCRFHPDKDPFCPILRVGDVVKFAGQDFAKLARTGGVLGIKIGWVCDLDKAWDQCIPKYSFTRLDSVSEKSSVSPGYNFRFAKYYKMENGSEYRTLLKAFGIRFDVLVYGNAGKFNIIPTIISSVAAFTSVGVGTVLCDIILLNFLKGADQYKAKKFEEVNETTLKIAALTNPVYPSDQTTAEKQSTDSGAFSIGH
Kind of assay: TEVC of α,β-meATP-induced currents, heteromeric hP2X2/3R in X. laevis oocytes (steady-state protocol). Type of assay: cell-based. The source says:
Oocyte expression plasmids encoding the wild-type (wt) and N-terminally His-tagged (His-) fusion constructs of the hP2X2R, hP2X3R, hP2X4R, and hP2X7R, and the mutant His-^20RMVL^23KVIV^23S^26N-hP2X1R, S^15V-rP2X3R, and His-S^15V-hP2X3R were the same as used in previous research ([Hausmann et al., 2006]; [Wolf et al., 2011]; [Hausmann et al., 2014]; [Obrecht et al., 2019]). In most cases, the N-terminal His-tagged variants of P2XRs were used here and in the previous studies to allow biochemical analyses on affinity-purified proteins using the same constructs. Although this was not required for the present study, it allows for better comparability with our previous studies. Capped cRNAs of different P2XRs were already available in the research group or were synthesized as previously described ([Schmalzing et al., 1991]; [Stolz et al., 2015]). cRNA was injected into collagenase-defolliculated X. laevis oocytes in aliquots of 41 nl or 23 nl (see Supplementary Table S1 for the amount of cRNA used for expression of the indicated P2XR) using a Nanoliter 2000 injector (World Precision Instruments, Sarasota, United States of America) as described previously ([Hausmann et al., 2014]; [Stolz et al., 2015]; [Obrecht et al., 2019]). To express the heteromeric hP2X2/3 receptor, cRNAs encoding His-hP2X2R and wt-hP2X3R were coinjected at a ratio (w/w) of 1:6. Oocytes were stored at 19°C in an oocyte ringer solution (ORi^+) containing 90 mM NaCl, 1 mM KCl, 1 mM CaCl2, 1 mM MgCl2, and 10 mM HEPES (Carl Roth, Karlsruhe, Germany) adjusted to pH 7.4 with NaOH and supplemented with 50 μg/ml gentamicin (AppliChem, Darmstadt, Germany). The procedures followed for the maintenance of and the surgical treatment for X. laevis adults were approved by the governmental animal care and use committee of the State Agency for Nature, Environment, and Consumer Protection (LANUV, Recklinghausen, Germany; reference no. 81-02.04.2019. A355), in compliance with Directive 2010/63/EU of the European Parliament and of the Council on the protection of animals used for scientific purpose.
Ion currents mediated by P2X receptors were evoked by the indicated concentration of ATP or α,β-meATP and were recorded 1 or 2 days after cRNA injection at ambient temperature at a holding potential of −60 mV by two-electrode voltage clamp (TEVC) as previously described ([Hausmann et al., 2006]). Calcium-free ORi^− solution (90 mM NaCl, 1 mM KCl, 2 mM MgCl2, 10 mM HEPES, pH 7.4) was used to avoid bias due to calcium-activated chloride channels (CaCC) endogenously expressed in X. laevis oocytes ([Miledi, 1982]; [Methfessel et al., 1986]). For recordings of wt-hP2X7R, the composition of the ORi^− solution was modified according to protocols described previously and contained 100 mM NaCl, 2.5 mM KCl, 1 mM MgCl2, 5 mM HEPES, pH 7.4 ([Klapperstück et al., 2000]). The oocytes were continuously superfused with ORi^− by gravity flow (5–10 ml/min). The agonists ATP or α,β-meATP and the investigated NSAIDs were diluted in ORi^− on the day of the recording. The following agonist concentrations were used for the different P2X subtypes: 1 μM ATP (hP2X1R mutant, hP2X3R, rP2X3R, S^15V-hP2X3R, and S^15V-rP2X3R); 10 μM ATP (hP2X2R and hP2X4R); 300 μM free ATP^4- (hP2X7R); and 1 μM α,β-meATP (hP2X2/3R). […]

Read-outs that look alike come from different tables or passages of the source.

For `O=C(O)Cc1ccccc1Nc1c(Cl)cccc1Cl` [Diclofenac, diclofenac], the IC50 in the assay with COX1 was […]; against hP2X2/3R (1 µM α,β-meATP, steady-state protocol, X. laevis oocytes), 76.7 µM. On hP2X2/3R (3–10 µM diclofenac), the “reduction of current amplitude in the presence of 3–10 µM diclofenac” value is on record as 20%–30%. Further, the inhibition at 30 µM on hP2X2/3R (read-out: % inhibition by 30 µM diclofenac of 1 µM α,β-meATP-induced current) came out at 44.8%; at hP2X2/3R (read-out: % inhibition by 30 µM diclofenac of 30 µM α,β-meATP-induced current), 25.1%. In addition, at hP2X2/3R (read-out: Max. inhibition at 1 mM), the inhibition at 1000 µM was determined as 97%.

A word on the IC50: it is the point on the concentration scale where inhibition reaches its midpoint. By inhibition is commonly meant the percentage by which the read-out fell short of the control.
